Source: patent publication US6894032B2, “Use of CDP-choline for the treatment of alcohol withdrawal syndrome” (Ferrer Internacional, S.A., priority 2000, dated 2005)

Tests used:
[1] = tested on: patients with alcohol withdrawal syndrome; experiment: Open clinical study of CDP-choline in alcohol withdrawal syndrome; assay type: in vivo, humans
Protocol: The progress of alcohol withdrawal syndrome was assessed in an open study conducted in 197 patients. CDP-choline was administered at doses of 500 mg/d i.m. or 600 mg/d p.o. for 60 days. […] At 60 days, 55.83% of patients had given up drinking alcohol and 31.97% of patients drank much less.

[2] = tested on: patients with alcohol withdrawal syndrome; experiment: Open, randomized, comparative clinical study of CDP-choline in alcohol withdrawal syndrome versus clomethiazole and vitamin B; assay type: in vivo, humans; conditions: CDP-choline 500 mg i.m. every 12 h for 30 days, then 200 mg p.o. every 8 h, plus conventional therapy; versus conventional therapy alone; 20 patients per group; at 30 days
Protocol: An open, randomized and comparative study on the conventional therapy of alcohol withdrawal syndrome was conducted in 40 patients. Patients were randomly distributed in two groups of 20. One of the groups was used as control and received clomethiazole and vitamin B1, B6 and B12. This treatment regimen was maintained for 8 days, and then patients were given diazepam until completion of treatment (60 days). The other group of patients received the same treatment regimen plus CDP-choline 500 mg i.m. every 12 h for the first 30 days and CDP-choline 200 mg p.o. every 8 h for the remaining 30 days.

[3] = 197 patients, 500 mg/d i.m. or 600 mg/d p.o. for 60 days, at 60 days

Compound: C[N+](C)(C)CCOP(=O)(O)OP(=O)([O-])OC[C@H]1O[C@@H](n2ccc(N)nc2=O)[C@H](O)[C@@H]1O [CDP-choline, cytidine diphosphate choline]
- anxiety, tremor, disorientation, insomnia, dysarthria, tendency to suicide and neuritic pains ([1]; 500 mg/d i.m. or 600 mg/d p.o. for 60 days): significant improvement
- patients who drank much less [1, 3]: 31.97%
- patients who had given up drinking alcohol [1, 3]: 55.83%
- assessments of progress of alcohol withdrawal syndrome ([1]; at 30 and 60 days following treatment, p<0.001): significant differences
- tremor incidence (p<0.05), cramps (p<0.05), asthenia (p<0.05), emotional lability (p<0.01), nervousness (p<0.05) and social withdrawal (p<0.05) [2]: significant differences versus control
